{"source": "patent US20070074297A1", "about": "“TAAR1 knock out animal” (priority 2005, published 2007)", "key": {"[1]": {"tested_on": "TAAR1^+/+ and TAAR1^LacZ/LacZ mice", "assay": "In vivo microdialysis of extracellular biogenic amines in the striatum after d-amphetamine", "parameters": "species or system mouse", "description": "Four months old male mice were used for these experiments. The procedures used for the experiments described in this report received prior approval from the City of Basel Cantonal Animal Protection Committee based on adherence to federal and local regulations on animal maintenance and testing.\nForty-five minutes before anesthesia mice received subcutaneously 0.075 mg/kg of buprenorfine. Mice were then anesthetized with isoflurane and placed in a stereotaxic device equipped with dual manipulators arms and an anesthetic mask. Anesthesia was maintained with isoflurane 0.8-1.2% (v/v; support gas oxygen/air, 2:1). The head was shaved and the skin was cut along the midline to expose the skull. A small bore hole was made in the skull to allow the stereotaxical insertion of the microdialysis probe (vertical probe carrying a 2 mm polyacrilonitrile dialysis membrane; Brains On-line, Groningen, The Netherlands) in the striatum (coordinates: A 0.9 mm, L-1.8 mm, V-4.6 mm). The probe was cemented into place using binary dental cement. Once the cement was firm, the wound was closed with silk thread for suture (Silkam) the animal was removed from the stereotaxic instrument and returned to its cage. At the end of the surgery and 24 hrs later mice were treated with Meloxicam 1 mg/kg sc. The body weight of the animals was measured before the surgery and in the following days to monitor the recovery of the animal from surgery.\nAll microdialysis experiments were carried out 3-4 days after surgery in awake, freely moving mice. The day of the experiment, the inlet of the implanted dialysis probe was connected to a micro-perfusion pump (CMA/Microdialysis, Sweden) and the outlet was connected to a fraction collector. The microdialysis probe was then perfused with Ringer solution (NaCl 147 mM, KCl 3 mM, CaCl2 1.2 mM, MgC12 1.2 mM) at a constant flow rate of 1.5 μL/min and […] Four samples of dialysates were collected before pharmacological treatment to determine the baseline levels of biogenic amines and their metabolites. Mice were then treated intraperitoneally with 2.5 mg/kg of amphetamine and dialysate samples collected for further 2.5 hrs. Dialysate samples were stored frozen at −80° C. until analysis.\nFrozen dialysate samples were shipped in dry ice to Brains On-Line for assay of monoamines and their metabolites. The concentrations of dopamine, DOPAC, serotonin, 5-HIAA and noradrenaline were measured by use an HPLC equipped with an electrochemical detector according to the procedure of van der Vegt et al. (2003).\nConcentrations of norepinephrine, dopamine, and serotonin were determined within the same samples by HPLC separation and electrochemical detection. Samples were split into two aliquots; one used for simultaneous analysis of norepinephrine and dopamine, the other for analysis of serotonin.\nAliquots (20 μL) were injected onto the HPLC column by a refrigerated microsampler system, consisting of a syringe pump (Gilson, model 402), a multi-column injector (Gilson, model 233 XL), and a temperature regulator (Gilson, model 832). Chromatographic separation was performed on a reverse-phase 150×2.1 mm (3 μm) C18 Thermo BDS Hypersil column (Keystone Scientific). The mobile phase (isocratic) consisted of a sodium acetate buffer (4.1 g/L Na acetate) with 2.5% v/v methanol, 150 mg/L Titriplex (EDTA), 150 mg/L 1-octanesulfonic acid, and 150 mg/L tetramethylammonium chloride (pH=4.1 adjusted with glacial acetic acid). Mobile phase was run through the system at a flow rate of 0.35 mL/min by an HPLC pump (Shimadzu, model LC-10AD vp).\nNorepinephrine and dopamine were detected electrochemically using a potentiostate (Antec Leyden, model Intro) fitted with a glassy carbon electrode set at +500 mV vs. Ag/AgCl (Antec Leyden). Data were analyzed by Chromatography Data System (Shimadzu, class-vp) software. Concentrations of monoamines were quantitated by external standard method. […]"}, "[2]": {"tested_on": "TAAR1^+/+ and TAAR1^LacZ/LacZ mice", "assay": "Locomotor activity after d-amphetamine challenge (Digiscan activity monitor)", "type": "in vivo, mouse", "settings": "2.5 mg/kg i.p.", "description": "Locomotor activity. A computerized Digiscan 16 Animal Activity Monitoring System (Omnitech Electronics, Colombus, Ohio) was used to quantitate spontaneous locomotor activity. Data were obtained simultaneously from eight Digiscan activity chambers placed in a soundproof room with a 12 hr light/dark cycle. All tests were performed during the light phase (6 a.m. to 6 p.m.). Each activity monitor consisted of a Plexiglas box (20×20×30.5 cm) with sawdust bedding on the floor surrounded by invisible horizontal and vertical infrared sensor beams. The cages were connected to a Digiscan Analyzer linked to a PC that constantly collected the beam status information. With this system, different behavioral parameters could be measured, such as horizontal and vertical activity, total distance travelled (in cm), and stereotypies. The mice were tested via a pseudo-Latin squares design […] with at least a 10-day interval between two consecutive test sessions. […] Locomotor activity was recorded for 90 min starting immediately after the mice were placed in the cages.\nStatistics. Behavioral observations were recorded as mean values SE and analyzed with an unpaired t test. Locomotor activity data (total distance) were analyzed with a two-factor (Genotype and Dose) ANOVA with repeated measures. […]"}, "[3]": {"tested_on": "dopaminergic neurons in the VTA", "assay": "Slice electrophysiology, spontaneous firing rate in the ventral tegmental area (current clamp)", "type": "cell-based, mouse", "settings": "for spike frequency F of dopaminergic neurons: bath application 10 μM", "description": "Horozontal slices (250 μm thick, VT1000 vibratome, Leica) of the midbrain were prepared from TAAR1 knock-out and littermate wild-type mice 25-60 days of age. Slices were cooled in artificial cerebrospinal fluid (ACSF) containing in mM: 119 NaCl, 2.5 KCl, 1.3 MgCl2, 2.5 CaCl2, 1.0 NaH2PO4, 26.2 NaHCO3 and 11 glucose. Slices were continuously bubbled with 95% O2 and 5% CO2 and transferred after 1 h to the recording chamber superfused (1.5 ml/min) with ACSF at 32-34° C. The VTA was identified as the region medial to the medial terminal nucleus of the accessory optical tract. Visualized whole-cell current-clamp recording techniques were used to measure the spontaneous firing rate and holding currents of neurons. […] Dopaminergic neurons were identified by a large Ih current. The internal solution contained in mM: 140 potassium gluconate, 4 NaCl, 2 MgCl2, 1.1 EGTA, 5 HEPES, 2 Na2ATP, 5 sodium creatine phosphate and 0.6 Na2GTP; the pH was adjusted to 7.3 with KOH. Data were obtained with an Axopatch 200B (Axon Instruments, Union City, Calif., USA), filtered at 2 kHz and digitized at 10 kHz, acquired and analyzed with pClamp9 (Axon Instruments, Union City, Calif., USA). Values are expressed as mean±sem. For statistical comparisons we used the Kolmogorov-Smirnov test. The level of significance was set at P=0.05."}, "[4]": {"settings": "TAAR1^LacZ/LacZ mice, 2.5 mg/kg i.p."}}, "note": "Where “and” joins values, the source holds several entries; their conditions need not be identical. Identical values can stand only once. Entries after “also recorded” stand apart in the source; their conditions may differ.", "data": [{"molecule": "C[C@H](N)Cc1ccccc1", "note": "[d-amphetamine]", "values": [{"measurement": "amphetamine-triggered increase in extracellular dopamine, TAAR1^LacZ/LacZ relative to TAAR1^+/+", "setting": "[1]; 2.5 mg/kg i.p., n=7-8", "value": 2.3, "unit": "fold"}, {"measurement": "amphetamine-triggered increase in noradrenaline (norepinephrine), TAAR1^LacZ/LacZ relative to wild type", "setting": "[1]; 2.5 mg/kg i.p., n=7-8, 2.5 mg/kg", "value": "2.3 fold and 2.4 fold"}, {"measurement": "time until DOPAC levels returned to basal levels", "setting": "[1]; TAAR1^LacZ/LacZ mice", "value": 135, "unit": "min"}, {"measurement": "increase of extracellular dopamine level over basal", "setting": "[1]; [4]", "value": 11, "unit": "fold"}, {"measurement": "increase of extracellular norepinephrine level over basal", "setting": "[1]; [4]", "value": 4.9, "unit": "fold"}, {"measurement": "increase of extracellular serotonin level", "setting": "[1]; [4]", "value": 2.5, "unit": "fold"}, {"measurement": "DOPAC level versus wild-type control", "setting": "[1]; TAAR1^LacZ/LacZ mice, 45 min after administration", "value": "significantly decreased"}, {"measurement": "change of extracellular DOPAC level in response to amphetamine", "setting": "[1]; both TAAR1^LacZ/LacZ and TAAR1^+/+ mice, 2.5 mg/kg i.p.", "value": "only a marginal decrease"}, {"measurement": "change in levels of the 5-HT metabolite 5-HIAA", "setting": "[1]; both genotypes, 2.5 mg/kg i.p.", "value": "No significant changes"}, {"measurement": "change of extracellular serotonin level", "setting": "[1]; wild type (TAAR1^+/+) mice, 2.5 mg/kg i.p., 2.5 mg/kg", "value": "remained unchanged; also recorded: not in their TAAR1^+/+ littermates"}, {"measurement": "locomotor activity (total distance moved) after d-amphetamine, compared to wild type littermates", "setting": "[2]; TAAR1^LacZ/LacZ mice, n=12, 2.5 mg/kg", "value": "moved significantly more than wild type littermates; also recorded: significantly higher"}, {"measurement": "locomotor activity (total distance moved) after d-amphetamine injection", "setting": "[2]; wild type (TAAR1^+/+) mice", "value": "decreased"}]}, {"molecule": "NCCc1ccc(O)cc1", "note": "[p-tyramine]", "values": [{"measurement": "spike frequency F of dopaminergic neurons", "setting": "[3]; TAAR1^+/+ mice, n=19, control 2.1±0.3 Hz, p<0.0001", "value": "0.63±0.04", "unit": "Hz"}, {"measurement": "spike frequency F of dopaminergic neurons", "setting": "[3]; TAAR1^LacZ/LacZ mice, n=15, control 16.73±1.15 Hz, p>0.05", "value": "16.57±1.35", "unit": "Hz"}, {"measurement": "effect on firing rate (spike frequency) of dopaminergic neurons, in words", "setting": "[3]; wild type (TAAR1^+/+) mice", "value": "significant decrease; also recorded: decreases the firing rate"}]}]}
